In US20250093263A1, “FRET-BASED ASSAYS” (The General Hospital Corporation, priority 2021, published 2025):
“And” between values parts separate entries of the source, which are not always exact repeats. Identical values can stand only once. Counter-ions that a name gives are not always drawn. Like-named read-outs stand apart in the source and are kept apart here. Marks after values point to notes of the source that are not given here.

What was measured:
HsProRS = target: T1, HsProRS (Homo sapiens, UniProt P07814); assay: TR-FRET ProRS ligand displacement / saturation binding assay, HsProRS; conditions: for fold less tightly bound to HT-HsProRS relative to HT-PfcProRS: tracer KD ratio
T1 construct: made in house; host or cells: SoluBL-21 E. coli
T1 sequence (P07814 996-1512): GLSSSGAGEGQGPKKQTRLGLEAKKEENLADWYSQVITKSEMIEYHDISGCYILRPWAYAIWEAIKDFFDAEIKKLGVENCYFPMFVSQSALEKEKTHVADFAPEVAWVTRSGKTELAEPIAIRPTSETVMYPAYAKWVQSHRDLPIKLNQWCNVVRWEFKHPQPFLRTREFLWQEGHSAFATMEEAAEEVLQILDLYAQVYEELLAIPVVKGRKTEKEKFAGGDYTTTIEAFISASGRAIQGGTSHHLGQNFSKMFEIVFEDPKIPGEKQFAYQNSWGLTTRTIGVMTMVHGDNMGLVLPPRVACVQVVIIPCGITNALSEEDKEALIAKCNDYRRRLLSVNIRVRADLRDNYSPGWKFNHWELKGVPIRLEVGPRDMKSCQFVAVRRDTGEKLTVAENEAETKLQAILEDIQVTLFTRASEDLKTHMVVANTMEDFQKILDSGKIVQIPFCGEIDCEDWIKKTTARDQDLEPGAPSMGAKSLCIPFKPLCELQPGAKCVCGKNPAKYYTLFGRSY
Protocol: (§1) A stock solution containing CoraFluor-1-Halo-labeled HT-PfcProRS or CoraFluor-1-Halo-labeled HT-HsProRS at the concentration specified for each experiment was prepared in assay buffer (50 mM Tris, pH 7.5, 20 mM KCl, 10 mM MgCl2, 0.05% Tween-20, 1 mM dithiothreitol, and 0.5 mg/mL BSA). […] Plates were mixed on an Ika MTS 2/4 Digital Microtiter Shaker at 750 rpm for 2 min, centrifuged at 1,000×g at 25° C. for 1 min. and allowed to equilibrate at room temperature for 2 h before TR-FRET measurements were taken. […] PRISM 9 (GraphPad) was used to perform non-linear regression analysis (one site—specific binding), plot dose-response curves, and calculate KD values.
(§2) A Multidrop Combi Reagent Dispenser (ThermoFisher Scientific) was used to dispense 20 μL of 2× protein solution into each well. […] Plates were mixed on an Ika MTS 2/4 Digital Microtiter Shaker at 750 rpm for 2 min, centrifuged at 1,000×g at 25° C. for I min, and allowed to equilibrate for 2 h at room temperature before TR-FRET measurements were taken.
(§3) PRISM 9 (GraphPad) was used to perform non-linear regression analysis (log(inhibitor) vs. response—Variable slope (four parameters)), plot dose-response curves, and calculate iC50 values.
(§4) Test compounds were dispensed in duplicate, triplicate, or sextuplicate dose-response format using a D300 digital dispenser (Hewlett Packard). […] Plates were mixed on an Ika MTS 2/4 Digital Microtiter Shaker at 750 rpm for 2 min, centrifuged at 1,000×g at 25° C. for 1 min, and allowed to equilibrate for 2 h at room temperature.
(§5) GraphPad PRISM was used to perform non-linear regression (log(inhibitor) vs. response—Variable slope (four parameters)), plot dose-response curves, and calculate IC50 values.
(§6) This assay was generally conducted in the same manner as the CoraFluor-1-Halo format with minor differences. […] Each well was supplemented with 1 nM CoraFluor-1-Pfp-labeled anti-His6 antibody before the 2 h incubation.
(§7) TR-FRET measurements were acquired in kinetic mode (1 read every ˜45 s) for at least 10 min.

PfcProRS = target: T2, PfcProRS (Plasmodium falciparum, UniProt Q8I5R7); assay: biochemical; type: binding
T2 construct: made in house; host or cells: SoluBL-21 E. coli
Protocol: as §1, §2, §3, §4, §5, §6, §7

Keap1 (His/GST) [1] = target: T3, Keap1 (His/GST) (Homo sapiens, UniProt Q14145); assay: Keap1 TR-FRET Assay 3 (CDDO-FITC/Tb-Anti-6xHis); type: binding
Keap1 (His/GST) [2] = target: T3, Keap1 (His/GST); assay: biochemical
[3] = test system: halofuginone-induced P. falciparum (elevated proline homeostasis); assay: P. falciparum asexual blood stage growth assay, halofuginone-induced parasites; conditions: for EC50: Plasmodium falciparum, DD2, 72 h, read-out: Dd2 (EC50 [nM]) Halofuginone-induced; for percent growth at 10 μM: halofuginone-induced, shown because compound had <50% growth inhibition
P. falciparum Dd2-2D4 = assay: P. falciparum asexual blood stage growth assay, wild type; conditions: for EC50: read-out: Dd2 (EC50 [nM]) wt; for percent growth at 10 μM: Dd2 wt, shown because compound had <50% growth inhibition
BRD4 in MDA-MB-231 cells = target: T4, BRD4 in MDA-MB-231 cells (Homo sapiens, UniProt O60885); assay: TR-FRET BRD4 quantification after degrader treatment, MDA-MB-231 cells; type: cell-based; conditions: for rescue of CS-JQ1-mediated BRD4 degradation: 250 nM CS-JQ1, 1 μM rescue compound or 10 μM JQ1; for rescue of dBET6-induced BRD4 degradation: 250 nM dBET6, 1 μM rescue compound or 10 μM JQ1, 5 h
T4 construct: TR-FRET-based quantification of BRD4 levels in unmodified cell lines after degrader treatment; endogenous in cells; host or cells: MDA-MB-231
Protocol: Cells were incubated for 5 h at 37° C. and 5% CO2 then media was replaced with pre-warmed cell culture medium (1 mL/well) and residual test compound was washed out for 1 h at 37° C. and 5% CO2. After, media was aspirated and cells were washed with PBS (2 mL/well), followed by the addition of ice-cold lysis buffer (200 μL/well). The plate was shaken at 200 rpm on an orbital shaker (IKA KS 260 basic) for 10 min, then lysate was transferred to 1.5 mL Eppendorf tubes and further incubated with slow, end-over-end mixing for 10 min at 4° C. […] TR-FRET ratios were background-subtracted from wells containing lysis buffer, 0.5 mg/mL BSA, and detection mix, then normalized to total protein concentration. The average TR-FRET intensity was normalized to DMSO for each biological replicate before being analyzed in Prism 9.
Cells were incubated for 5 h at 37° C. and 5% CO2 then media was replaced with pre-warmed cell culture medium (150 μL/well) and residual test compound was washed out for 1 h at 37° C. and 5% CO2. After, media was aspirated and cells were washed with PBS (200 μL/well), followed by the addition of ice-cold lysis buffer (60 L/well). […] Optionally, after TR-FRET measurements, 5 μL/well of CellTiter-Glo 2.0 reagent (Promega G9241) was added to the wells of the 384-well plate and allowed to equilibrate for 10 minutes before luminescence intensity was recorded on a Tecan SPARK plate reader (luminescence module, no attenuation, 250 ms integration time, output Counts/s). TR-FRET ratios were background-subtracted from wells containing lysis buffer, 0.5 mg/mL BSA, and detection mix.

BRD4 in MCF7 cells = target: T5, BRD4 in MCF7 cells (Homo sapiens, UniProt O60885); assay: TR-FRET BRD4 quantification after degrader treatment, MCF7 cells; type: cell-based; conditions: for rescue of CS-JQ1-mediated BRD4 degradation: 250 nM CS-JQ1, 1 μM rescue compound or 10 μM JQ1; for rescue of dBET6-induced BRD4 degradation: 250 nM dBET6, 1 μM rescue compound or 10 μM JQ1, 5 h
T5 construct: TR-FRET-based quantification of BRD4 levels in unmodified cell lines after degrader treatment; endogenous in cells; host or cells: MCF7
Protocol: Cells were incubated for 5 h at 37° C. and 5% CO2 then media was replaced with pre-warmed cell culture medium (1 mL/well) and residual test compound was washed out for 1 h at 37° C. and 5% CO2. After, media was aspirated and cells were washed with PBS (2 mL/well), followed by the addition of ice-cold lysis buffer (200 μL/well). The plate was shaken at 200 rpm on an orbital shaker (IKA KS 260 basic) for 10 min, then lysate was transferred to 1.5 mL Eppendorf tubes and further incubated with slow, end-over-end mixing for 10 min at 4° C. […] TR-FRET ratios were background-subtracted from wells containing lysis buffer, 0.5 mg/mL BSA, and detection mix, then normalized to total protein concentration. The average TR-FRET intensity was normalized to DMSO for each biological replicate before being analyzed in Prism 9. […] Cell treatment, lysate preparation and TR-FRET analysis was performed as described above.

[4] = target: T6, WT Keap1 (tag-free, full-length) (Homo sapiens, UniProt Q14145); assay: biochemical; conditions: read-out: Assay 1: % at 100
[5] = target: T6, WT Keap1 (tag-free, full-length); assay: biochemical
[6] = dose-titration of tracer on HT-HsProRS, read-out: HsProRS KD of tracers
[7] = absence of substrates, read-out: HsProRS (KD [nM]) −
[8] = read-out: HsProRS (KD [nM]) +proline, 100 μM proline
[9] = PfcProRS (KD [nM]) +proline, 100 μM proline
[10] = PfcProRS (KD [nM]) −, absence of substrates
[11] = Plasmodium falciparum, DD2, 72 h
[12] = substrate condition not given, read-out: HsProRS KD
[13] = PfcProRS KD, substrate condition not given
[14] = dose-titration of ATP and proline against tracer MAT379, read-out: PfcProRS KD of substrates

T2 sequence (Q8I5R7 249-746): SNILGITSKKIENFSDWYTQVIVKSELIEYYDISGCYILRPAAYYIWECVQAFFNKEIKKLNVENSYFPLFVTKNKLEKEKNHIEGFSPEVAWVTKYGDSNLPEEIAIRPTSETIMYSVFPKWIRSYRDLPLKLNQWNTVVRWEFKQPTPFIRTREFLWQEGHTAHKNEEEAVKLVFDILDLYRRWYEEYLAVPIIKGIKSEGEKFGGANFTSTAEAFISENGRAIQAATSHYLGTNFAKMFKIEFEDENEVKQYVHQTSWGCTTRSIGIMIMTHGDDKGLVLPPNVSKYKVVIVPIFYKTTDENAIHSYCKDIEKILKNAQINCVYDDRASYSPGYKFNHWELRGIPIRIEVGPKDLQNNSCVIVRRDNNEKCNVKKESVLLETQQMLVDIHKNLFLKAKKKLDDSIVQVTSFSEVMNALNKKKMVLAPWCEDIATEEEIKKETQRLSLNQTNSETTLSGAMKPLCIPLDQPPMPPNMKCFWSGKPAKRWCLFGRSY
T6 sequence (Q14145 whole entry): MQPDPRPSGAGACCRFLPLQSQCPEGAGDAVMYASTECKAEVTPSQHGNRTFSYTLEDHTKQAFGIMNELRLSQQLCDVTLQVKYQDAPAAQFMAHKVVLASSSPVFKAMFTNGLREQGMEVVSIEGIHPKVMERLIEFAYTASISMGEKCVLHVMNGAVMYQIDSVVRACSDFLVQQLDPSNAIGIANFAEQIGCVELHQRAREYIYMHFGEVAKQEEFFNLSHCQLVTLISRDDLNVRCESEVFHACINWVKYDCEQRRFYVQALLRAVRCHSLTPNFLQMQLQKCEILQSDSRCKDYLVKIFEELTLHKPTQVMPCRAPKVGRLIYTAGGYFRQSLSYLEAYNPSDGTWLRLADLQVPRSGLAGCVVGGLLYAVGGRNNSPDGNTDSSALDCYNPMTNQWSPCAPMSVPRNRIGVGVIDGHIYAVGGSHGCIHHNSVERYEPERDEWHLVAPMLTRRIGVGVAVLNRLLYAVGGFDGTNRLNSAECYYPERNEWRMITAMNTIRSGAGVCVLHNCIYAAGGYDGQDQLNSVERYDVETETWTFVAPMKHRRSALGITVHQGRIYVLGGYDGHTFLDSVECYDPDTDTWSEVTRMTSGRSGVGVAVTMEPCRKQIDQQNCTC
T3 sequence (Q14145 whole entry): as above

O=C(CCCCCNC(=S)Nc1ccc(-c2c3ccc(=O)cc-3oc3cc(O)ccc23)c(C(=O)O)c1)NC1CCN(C(=O)Nc2nccnc2C(=O)NC2Cc3ccccc3C2)CC1 [MAT379]
Kd (HsProRS; [6]): 1700 nM
fold less tightly bound to HT-HsProRS relative to HT-PfcProRS (HsProRS): 17 fold and > 15 fold
koff (PfcProRS; 10-fold dilution of 100 nM HT-PfcProRS and 560 nM MAT379, read-out: first-order dissociation rate constant (koff)): < 0.00267 s⁻¹
Kd (PfcProRS; absence of substrates, read-out: PfcProRS (KD [nM]) −): 100 nM

COC1=CC(=O)C(O)=C/C1=C\C=C\c1ccccc1 [OBT, obtusaquinone]
IC50 (Keap1 (His/GST) [1]): 3.39 µM
IC50 (Keap1 (His/GST) [2]): 24.6 µM

O=C(NC1Cc2ccccc2C1)c1nccnc1NC(=O)N1CCC(CNC(=O)[C@@H]2CCCN2)CC1 [MAT345, (S)-N-(2,3-dihydro-1H-inden-2-y)-3-(4-((pyrrolidine-2-carboxamido)methyl)piperidine-1-carboxamido)pyrazine-2-carboxamide]
Kd (HsProRS; [7]): 140 nM
Kd (HsProRS; [8]): 282 nM
EC50 [3]: 7210 nM
Kd (PfcProRS; [9]): 35.9 nM
Kd (PfcProRS; [10]): 39.8 nM
EC50 (P. falciparum Dd2-2D4; [11]): 249 nM

Nc1ncnc2c1ncn2[C@@H]1O[C@H](CNS(=O)(=O)NC(=O)[C@@H]2CCCN2)[C@@H](O)[C@H]1O [ProSNA, (S)-N-(N-(((2R,3S,4R,5R)-5-(6-amino-9H-purin-9-yl)-3,4-dihydroxytetrahydrofuran-2-yl)methyl)sulfamoyl)pyrrolidine-2-carboxamide]
Kd (HsProRS; [12]): < 1 nM
Kd (PfcProRS; [13]): < 1 nM
EC50 (P. falciparum Dd2-2D4; [11]): 172 nM

NS(=O)(=O)OC[C@@H]1C[C@@H](n2ccc3c(N[C@H]4CCc5ccccc54)ncnc32)C[C@@H]1O [MLN4924]
rescue of CS-JQ1-mediated BRD4 degradation (BRD4 in MDA-MB-231 cells): substantially rescued
rescue of dBET6-induced BRD4 degradation (BRD4 in MDA-MB-231 cells): attenuated
rescue of CS-JQ1-mediated BRD4 degradation (BRD4 in MCF7 cells): substantially rescued
rescue of dBET6-induced BRD4 degradation (BRD4 in MCF7 cells): attenuated

O=C(CCCCCNC(=S)Nc1ccc(-c2c3ccc(=O)cc-3oc3cc(O)ccc23)c(C(=O)O)c1)NCCCCCC(=O)NC1CCN(C(=O)Nc2nccnc2C(=O)NC2Cc3ccccc3C2)CC1 [MAT422]
Kd (HsProRS; [6]): > 4000 nM
Kd (PfcProRS; KD, PfcProRS of alternative tracer, tracer binding, conditions not stated): 1280 nM

CC1(C)CC[C@]2(C(=O)O)CC[C@]3(C)[C@H](C(=O)C=C4[C@@]5(C)C=C(C#N)C(=O)C(C)(C)[C@@H]5CC[C@]43C)[C@@H]2C1 [CDDO, (4aS,6aR,6bS,8aR,12aS,14aR,14bS)-11-cyano-2,2,6a,6b,9,9,12a-heptamethyl-10,14.dioxo-1,3,4,5,6,6a,6b,7,8,8a,9,10,12a,14,14a,14b-hexadecahydropicene-4a(2H)-carboxylic acid]
IC50 (Keap1 (His/GST) [1]): 0.004 µM
IC50 (Keap1 (His/GST) [2]): 224 µM

COC(=O)/C=C/C(=O)OC [DMF, dimethyl fumarate]
inhibition at 100 µM [4]: < 5%
IC50 [5]: 129 µM
Kd [5]: 67.4 µM
IC50 (Keap1 (His/GST) [1]): 64.8 µM
IC50 (Keap1 (His/GST) [2]): 266 µM

Nc1ncnc2c1ncn2[C@@H]1O[C@H](COP(=O)(O)OP(=O)(O)OP(=O)(O)O)[C@@H](O)[C@H]1O [ATP]
Kd (PfcProRS; [14]): 892000 nM

NCCOCCOCCCCCCN(C[C@H]1O[C@@H](n2cnc3c(N)ncnc32)[C@H](O)[C@@H]1O)S(=O)(=O)NC(=O)[C@@H]1CCCN1 [MAT556, (S)-N-(N-(((2R,3S,4R,5R)-5-(6-amino-9H-purin-9-yl)-3,4-dihydroxytetrahydrofuran-2-yl)methyl)-N-(6-(2-(2-aminoethoxy)ethoxy)hexyl)sulfamoyl)pyrrolidine-2-carboxamide]
Kd (HsProRS; [12]): 33.7 nM
Kd (PfcProRS; [13]): 195 nM

COC(=O)[C@]12CCC(C)(C)C[C@H]1[C@H]1C(=O)C=C3[C@@]4(C)C=C(C#N)C(=O)C(C)(C)[C@@H]4CC[C@@]3(C)[C@]1(C)CC2 [CDDO-Me, bardoxolone methyl]
inhibition at 100 µM [4]: < 10%
IC50 [5]: 0.024 µM
Kd [5]: 0.013 µM
IC50 (Keap1 (His/GST) [1]): 0.011 µM
IC50 (Keap1 (His/GST) [2]): 103 µM

O=C(CCCCCNC(=S)Nc1ccc(C(=O)O)c(-c2c3ccc(=O)cc-3oc3cc(O)ccc23)c1)NCC1CCN(C(=O)Nc2nccnc2C(=O)NC2Cc3ccccc3C2)CC1 [MAT425, 4-(3-(6-(((1-((3-((2,3-dihydro-1H-inden-2-yl)carbamoyl)pyrazin-2-yl)carbamoyl)piperidin-4-yl)methyl)amino)-6-oxohexyl)thioureido)-2-(6-hydroxy-3-oxo-3H-xanthen-9-yl)benzoic acid]
Kd (HsProRS; [6]): > 10000 nM
fold less tightly bound to HT-HsProRS relative to HT-PfcProRS (HsProRS): > 50 fold
Kd (PfcProRS; [10]): 199 nM

CC(C)(C)OC(=O)N1CCC[C@H]1C(=O)NCC1CCN(C(=O)Nc2nccnc2C(=O)NC2Cc3ccccc3C2)CC1 [Compound 32, tert-butyl (S)-2-(((1-((3-((2,3-dihydro-1H-inden-2-yl)Carbamoyl)pyrazin-2-yl)carbamoyl)piperidin-4-yl)methyl)carbamoyl)pyrrolidine-1-carboxylate]
Kd (HsProRS; [7]): 72.1 nM
Kd (HsProRS; [8]): 270 nM
EC50 [3]: 1530 nM
Kd (PfcProRS; [9]): 5.35 nM
Kd (PfcProRS; [10]): 6.67 nM
EC50 (P. falciparum Dd2-2D4; [11]): 63.2 nM

CC[C@H](C)[C@H](N)C(=O)NS(=O)(=O)NC[C@H]1O[C@@H](n2cnc3c(N)ncnc32)[C@H](O)[C@@H]1O [IleSNA]
IC50 (P. falciparum Dd2-2D4; Plasmodium falciparum, DD2, read-out: ABS IC50): 0.00119 µM

O=C(CC1NCCCC1O)Cn1cnc2cc(Br)c(Cl)cc2c1=O (stereo not drawn) [halofuginone, reference compound]
fold increased affinity in the presence of ATP (PfcProRS; 500 μM ATP vs 0 μM ATP): > 6,000 fold

CC(C)(C)OC(=O)N1CCC[C@H]1C(=O)NC1CCN(C(=O)Nc2nccnc2C(=O)NC2Cc3ccccc3C2)CC1 [Compound 31, tert-butyl (S)-2-((1-((3-((2,3-dihydro-1H-inden-2-yl)carbamoyl)pyrazin-2-yl)carbamoyl)piperidin-4-yl)carbamoyl)pyrrolidine-1-carboxylate]
Kd (HsProRS): > 5000 nM
percent growth at 10 μM [3]: 98%†
Kd (PfcProRS; [9]): 1990 nM
Kd (PfcProRS; [10]): 2300 nM
percent growth at 10 μM (P. falciparum Dd2-2D4): 102%†

O=C(O)[C@@H]1CCCN1 [proline]
Kd (HsProRS; read-out: HsProRS KD of proline, competition with MAT379): 67100 nM
Kd (PfcProRS; [14]): 457000 nM

CC(C)(C)OC(=O)NC1CCN(C(=O)Nc2nccnc2C(=O)NC2Cc3ccccc3C2)CC1 [Compound 7, tert-butyl (1-((3-((2,3-dihydro-1H-inden-2-yl)carbamoyl)pyrazin-2-yl)carbamoyl)piperidin-4-yl)carbamate]
EC50 [3]: 2170 nM
Kd (PfcProRS; [9]): 13.2 nM
Kd (PfcProRS; [10]): 13.1 nM
EC50 (P. falciparum Dd2-2D4; [11]): 90.6 nM

CC(C)C[C@H](NC(=O)[C@H](Cc1ccccc1)NC(=O)c1cnccn1)B(O)O [bortezomib]
rescue of CS-JQ1-mediated BRD4 degradation (BRD4 in MDA-MB-231 cells): substantially rescued
rescue of dBET6-induced BRD4 degradation (BRD4 in MDA-MB-231 cells): attenuated
rescue of CS-JQ1-mediated BRD4 degradation (BRD4 in MCF7 cells): substantially rescued
rescue of dBET6-induced BRD4 degradation (BRD4 in MCF7 cells): attenuated

NS(=O)(=O)OC[C@H]1C[C@@H](Nc2ccnc3cc(-c4cccc(SC(F)(F)F)c4)nn23)[C@H](O)[C@@H]1O [MLN7243]
rescue of CS-JQ1-mediated BRD4 degradation (BRD4 in MDA-MB-231 cells): substantially rescued
rescue of dBET6-induced BRD4 degradation (BRD4 in MDA-MB-231 cells): attenuated
rescue of CS-JQ1-mediated BRD4 degradation (BRD4 in MCF7 cells): substantially rescued
rescue of dBET6-induced BRD4 degradation (BRD4 in MCF7 cells): attenuated

Nc1ncnc2c1ncn2[C@@H]1O[C@H](COS(=O)(=O)NC(=O)[C@@H]2CCCN2)[C@@H](O)[C@H]1O [ProSA, prolyl-sulfamoyl adenosine, reference compound]
EC50 (P. falciparum Dd2-2D4; wild-type Dd2-2D4, 72 h growth): 151 nM

O=C(NC1Cc2ccccc2C1)c1nccnc1NC(=O)N1CCC(NC(=O)[C@@H]2CCCN2)CC1 [MAT334, (S)-N-(2,3-dihydro-1H-inden-2-yl)-3-(4-(pyrrolidine-2-carboxamido)piperidine-1-carboxamido)pyrazine-2-carboxamide]
Kd (HsProRS; [8]): 2130 nM
percent growth at 10 μM [3]: 59%†
Kd (PfcProRS; [9]): 660 nM
Kd (PfcProRS; [10]): 1380 nM
percent growth at 10 μM (P. falciparum Dd2-2D4): 76%†
